pIC50: −log10 of the molar value. Marks after values point to notes of the source that are not given here.
What was measured:
[1] = system: NF-κB transcriptional activity; assay: NF-κB luciferase reporter assay in HeLa cells; assay type: cell-based; conditions: for pIC50: Homo sapiens, NF-κB luciferase reporter, 24 h treatment, hypoxic conditions, mean, n = 3
Experimental: A NF-κB-Luc plasmid for NF-κB luciferase reporter assay was obtained from Strategene (La Jolla, CA, USA). Transfections were performed as previously described. NF-κB-dependent luciferase activity was measured using the Dual-luciferase reporter assay system. Briefly, HeLa cells (1 × 10^5 cells/well) were seeded in a 96-well plate for 24 h. The cells were then transfected with plasmids for each well and then incubated for a transfection period of 24 h. […] Luciferase activity was determined in MicroLumat plus luminometer (EG&G Berthold, Bad Wildbad, Germany) by injecting 100 µL of assay buffer containing luciferin and measuring light emission for 10 s. Co-transfection with pRL-CMV (Promega, Madison, WI, USA), which expresses Renilla luciferase, was performed to enable normalization of data for transfection efficiency.

xylene-induced ear edema [2] = assay: Xylene-induced ear edema test, initial screening (i.p.); assay type: in vivo; conditions: mice; for inhibition in vivo at 100 mg/kg: Mus musculus, ip, 0.5 h, n = 6, read-out: Inhibition Rate; for Edema Mean ± SD: 100 mg/kg, n = 6
Experimental: In vivo inhibition test of xylene induced ear edema in mice was performed to evaluate its anti-inflammatory activity.
In the initial screening, mice (male) were randomly divided into experimental group, positive control drug ibuprofen and Mesalazine group, and blank group. All target compounds were dissolved in dimethyl sulfoxide, and corresponding drugs were intraperitoneally injected into experimental group, positive control group and blank group, respectively. Mice were treated with 100 mg/kg, 0.1 mL/20 g body weight, and control mice received only DMSO (0.1 mL/20 g body weight). After 30 min, 20 μL of xy-lene was evenly applied on both sides of the right ear of the mice. After 30 min of xy-lene was applied, the mice were sacrificed by cutting off their necks. Then the left and right ears of the mice were drilled with a hole punch with a diameter of 7 mm, respec-tively, to obtain two round ear pieces. The degree of swelling (right ear mass–left ear mass) was calculated for each sample, and the swelling inhibition rate of each drug was calculated using the following formula. The inhibition rate of swelling degree (%) = (mean ear swelling degree of mice in blank group […] mean ear swelling degree of mice in target compound group)/mean ear swelling degree of mice in blank group × 100%. The data were processed by GraphPadPrism 5 and expressed as mean data ± SEM. One-way ANOVA method was used for statistical analysis of relevant data. A value of p < 0.05 in the chart indicates significant and statistically significant data dif-ference.

[3] = MTT cytotoxicity / cell viability assay; assay type: cell-based; conditions: human; MTT assay, HeLa cells, 24 h treatment, normoxic conditions; mean, n = 3
Experimental: (§1) HeLa cells were inoculated and cultured in 96-well plates. After the cells adhered to the wall, the prepared target compounds with different concentrations were added to all plates for 24 h and then cultured in 5 mg/mL MTT solution for 4 h. The culture solution in the holes was sucked out, and DMSO reagent was added. After the crystallization was fully dissolved, the absorbance at 570 nm was measured by Multiskan GO.

HeLa cells = assay: MTT cytotoxicity / cell viability assay; assay type: cell-based; conditions: for IC50 Cytotoxicity: MTT assay, 24 h treatment, normoxic conditions, mean, n = 3
Experimental: as §1

xylene-induced ear edema [4] = assay: Xylene-induced ear edema test, deep screening (oral); assay type: in vivo; conditions: mice
Experimental: In the deep screening, mice were divided into target compound group, positive control group (ibuprofen), and blank group (8 male mice in each group). Target com-pound and ibuprofen were dissolved in sodium carboxymethyl cellulose aqueous solu-tion (sodium carboxymethyl cellulose to water, mass ratio 1:1000); the blank group was sodium carboxymethyl cellulose aqueous solution (sodium carboxymethyl cellu-lose to water, mass ratio 1:1000). The anti-inflammatory activities of each compound in the target compound group, positive control group, and blank group were measured at 1, 2, 3, 4, 6, 9, 12 and 24 h after taking the drug. The experimental operation and calculation method are the same as the initial screening part.

p65 = assay: Western blot of nuclear extracts, TNF-α-induced p65; assay type: cell-based

SMILES: COC(=O)c1c2c(c3ccccc3c1OCC(=O)Nc1ccc(OC)cc1)OC(C)(C)C=C2 [Compound 4d, Methyl 6-(2-((4-methoxyphenyl)amino)-2-oxoethoxy)-2,2-dimethyl-2H-benzo [h] chromene-5-carboxylate]
- melting point: 126 to 128 °C
- pIC50 [1]: 4.05
- inhibition in vivo at 100 mg/kg (xylene-induced ear edema [2]): 61.9%
- Edema Mean ± SD (xylene-induced ear edema [2]): 2.5167 ± 0.6890 mg
- IC50 at 24 h [3]: > 100 µM
- IC50 Cytotoxicity (HeLa cells): no significant cell toxicity

SMILES: COC(=O)c1c2c(c3ccccc3c1OCC(=O)Nc1ccc(C)cc1)OC(C)(C)C=C2 [Compound 4e, Methyl 2,2-dimethyl-6-(2-oxo-2-(p-tolylamino)ethoxy)-2H-benzo [h] chromene-5-carboxylate]
- melting point: 120 to 122 °C
- pIC50 [1]: 4.26
- inhibition in vivo at 100 mg/kg (xylene-induced ear edema [2]): 41.4%
- Edema Mean ± SD (xylene-induced ear edema [2]): 3.8667 ± 1.2023 mg
- IC50 at 24 h [3]: > 100 µM
- IC50 Cytotoxicity (HeLa cells): no significant cell toxicity

SMILES: COC(=O)c1c2c(c3ccccc3c1OCC(=O)Nc1ccc(F)cc1)OC(C)(C)C=C2 [Compound 4f, Methyl 6-(2-((4-fluorophenyl)amino)-2-oxoethoxy)-2,2-dimethyl-2H-benzo [h] chromene-5-carboxylate]
- melting point: 132 to 134 °C
- pIC50 [1]: 4.73
- Inhibition (xylene-induced ear edema [4]; 100 mg/kg, time 1 h): 27.53% ***
- Inhibition (xylene-induced ear edema [4]; 100 mg/kg, time 2 h): 37.12% ***
- Inhibition (xylene-induced ear edema [4]; 100 mg/kg, time 3 h): 46.46% ***
- Inhibition (xylene-induced ear edema [4]; 100 mg/kg, time 4 h): 58.08% ***
- Inhibition (xylene-induced ear edema [4]; 100 mg/kg, time 9 h): 43.94% ***
- Inhibition (xylene-induced ear edema [4]; 100 mg/kg, time 12 h): 35.35% ***
- Inhibition (xylene-induced ear edema [4]; 100 mg/kg, time 24 h): 26.01% ***
- Inhibition (xylene-induced ear edema [4]; dose series, 25 mg/kg, 6 h): 46.46% **
- Inhibition (xylene-induced ear edema [4]; dose series, 50 mg/kg, 6 h): 53.08% ***
- inhibition in vivo at 100 mg/kg (xylene-induced ear edema [2]): 83.1%
- Edema Mean ± SD (xylene-induced ear edema [2]): 1.1167 ± 0.2544 mg
- IC50 at 24 h [3]: > 100 µM
- IC50 Cytotoxicity (HeLa cells): no significant cell toxicity

SMILES: COC(=O)c1c2c(c3ccccc3c1OCC(=O)Nc1ccc(CC#N)cc1)OC(C)(C)C=C2 [Compound 4i, Methyl 6-(2-((4-(cyanomethyl)phenyl)amino)-2-oxoethoxy)-2,2-dimethyl-2H-benzo [h] chromene-5-carboxylate]
- melting point: 115 to 117 °C
- pIC50 [1]: 4.64
- inhibition in vivo at 100 mg/kg (xylene-induced ear edema [2]): 59.1%
- Edema Mean ± SD (xylene-induced ear edema [2]): 2.7000 ± 0.4619 mg
- IC50 at 24 h [3]: > 100 µM
- IC50 Cytotoxicity (HeLa cells): no significant cell toxicity

SMILES: COC(=O)c1c2c(c3ccccc3c1OCC(=O)Nc1ccc3ncccc3c1)OC(C)(C)C=C2 [Compound 6d, Methyl 2,2-dimethyl-6-(2-oxo-2-(quinolin-6-ylamino)ethoxy)-2H-benzo [h] Chromene-5-carboxylate]
- melting point: 135 to 137 °C
- inhibition of NF-κB luciferase activity, dose dependence ([1]; Figure 2A): dose-dependent inhibition
- pIC50 [1]: 5.42
- TNF-α-induced expression of p65 (p65; HeLa cells, 100 µM): inhibited TNF-α-induced expression of p65
- TNF-α-induced p65 phosphorylation (p65; HeLa cells, 10, 30, 100 µM for 12 h, then 10 ng/mL TNF-α 30 min, nuclear extracts): significantly inhibited TNF-α-induced p65 phosphorylation in a dose-dependent manner
- Inhibition (xylene-induced ear edema [4]; 100 mg/kg, time 1 h): 25.76% ***
- Inhibition (xylene-induced ear edema [4]; 100 mg/kg, time 2 h): 33.84% ***
- Inhibition (xylene-induced ear edema [4]; 100 mg/kg, time 3 h): 41.92% ***
- Inhibition (xylene-induced ear edema [4]; 100 mg/kg, time 4 h): 52.53% ***
- Inhibition (xylene-induced ear edema [4]; 100 mg/kg, time 9 h): 37.63% ***
- Inhibition (xylene-induced ear edema [4]; 100 mg/kg, time 12 h): 31.82% ***
- Inhibition (xylene-induced ear edema [4]; 100 mg/kg, time 24 h): 25.25% ***
- Inhibition (xylene-induced ear edema [4]; dose series, 25 mg/kg, 6 h): 41.92% **
- Inhibition (xylene-induced ear edema [4]; dose series, 50 mg/kg, 6 h): 46.32% ***
- inhibition in vivo at 100 mg/kg (xylene-induced ear edema [2]): 76.8%
- IC50 at 24 h [3]: > 100 µM
- cell viability (HeLa cells; 30 µM, 24 h, Figure 2B): did not adversely affect the cell viability
- IC50 Cytotoxicity (HeLa cells): did not show any significant cytotoxicity

SMILES: COC(=O)c1c2c(c3ccccc3c1OCCBr)OC(C)(C)C=C2 [Compound 8a, Methyl 6-(2-bromoethoxy)-2,2-dimethyl-2H-benzo [h] chromene-5-carboxylate]
- melting point: 110 to 112 °C
- pIC50 [1]: < 4.00
- inhibition in vivo at 100 mg/kg (xylene-induced ear edema [2]): 57.3%
- Edema Mean ± SD (xylene-induced ear edema [2]): 2.8167 ± 0.9370 mg
- IC50 at 24 h [3]: > 100 µM

SMILES: COC(=O)c1c2c(c3ccccc3c1OCCNc1ccccc1)OC(C)(C)C=C2 [Compound 8b, Methyl 2,2-dimethyl-6-(2-(phenylamino)ethoxy)-2H-benzo[h]chromene-5-carboxylate]
- melting point: 135 to 137 °C
- pIC50 [1]: < 4.00
- inhibition in vivo at 100 mg/kg (xylene-induced ear edema [2]): 76.5%
- Edema Mean ± SD (xylene-induced ear edema [2]): 1.5500 ± 0.3594 mg
- IC50 at 24 h [3]: > 100 µM

SMILES: COC(=O)c1c2c(c3ccccc3c1OCCNc1ccc(F)cc1)OC(C)(C)C=C2 [Compound 8c, Methyl6-(2-((4-fluorophenyl)amino)ethoxy)-2,2-dimethyl-2H-benzo [h] chromene-5-carboxylate]
- melting point: 128 to 130 °C
- pIC50 [1]: < 4.00
- inhibition in vivo at 100 mg/kg (xylene-induced ear edema [2]): 63.9%
- Edema Mean ± SD (xylene-induced ear edema [2]): 2.3833 ± 0.7104 mg
- IC50 at 24 h [3]: > 100 µM

— article PMC9695821, “Synthesis and Evaluation of NF-κB Inhibitory Activity of Mollugin Derivatives” (Molecules, 2022)
